# Measurements from patent EP0046734A2, “Aminohydroxyphenyl derivatives of cephalosporins, process for their preparation and pharmaceutical compositions containing them” (CIBA-GEIGY AG, priority 1980, dated 1982).
# Columns and labels:
# [1] = test system: Neisseria meningitidis; test: Antibiotic activity in vitro, agar dilution method in DST agar (MIC); format: cell-based
# From the text: (§1) A. Die antibiotische Aktivität der Testverbindungen in vitro wurde durch die Agarverdünnungsmethode nach Ericsson, H.M. und Sherris, S.C., 1971, Acta Path. Microb. Scand. Section B, Suppl. No. 217, Bd. 1-90, in DST Agar ermittelt. Die gefundenen, das Wachstum der Testorganismen noch hemmenden Minimalkonzentrationen (MIC = minimum inhibiting concentrations) werden in Mikrogramm pro Milliliter (µg/ml) für die geprüften Verbindungen in der Tabelle 1 angegeben.
# [2] = test system: Klebsiella pneumoniae 372; test: as above; format: cell-based
# From the text: as §1
# [3] = test system: Streptococcus pyogenes Aronson; test: as above; format: cell-based
# From the text: as §1
# [4] = test system: Escherichia coli DC2; test: as above; format: cell-based
# From the text: as §1
# [5] = test system: Staphylococcus aureus 10 B; test: Chemotherapeutic activity in vivo against systemic infection in mice (ED50); set-up: species or system weiblichen SPF, MF2 Mäusen
# From the text: (§2) B. Die chemotherapeutsche Wirksamkeit in vivo gegen systemische Infektionen in weiblichen SPF, MF2 Mäusen wurde nach der Methode von Zak, 0., et al., 1979, Drugs Exptl. Clin. Res. 5, 45.59, ermittelt. Die gefundenen ED50 -Werte in Milligramm Substanz pro Kilogramm Maus (mg/kg) gegen eine Anzahl von Mikroorganismen werden für die oral (p.o.) oder subcutan (s.c.) applizierten Testverbindungen in der Tabelle 2 angegeben.
# [6] = test system: Escherichia coli 205; test: as above; set-up: species or system weiblichen SPF, MF2 Mäusen
# From the text: as §2
# [7] = test system: Klebsiella pneumoniae 327; test: as above; set-up: species or system weiblichen SPF, MF2 Mäusen; settings: po
# From the text: as §2
# [8] = test system: Proteus mirabilis 774; test: as above; set-up: species or system weiblichen SPF, MF2 Mäusen; settings: po
# From the text: as §2
SMILES,MIC [1] [µg/mL],MIC [2] [µg/mL],MIC [3] [µg/mL],MIC [4] [µg/mL],ED50 ([5]; po) [mg/kg],ED50 ([5]; sc) [mg/kg],ED50 ([6]; po) [mg/kg],ED50 ([6]; sc) [mg/kg],ED50 [7] [mg/kg],ED50 [8] [mg/kg]
"COC1=C(C(=O)O)N2C(=O)[C@@H](NC(=O)[C@H](N)c3ccc(O)c(NS(C)(=O)=O)c3)[C@H]2SC1 [Verbindung 1, 7ß-[D-2-Amino-2-(3-methylsulfonylamino-4-hydroxyphenyl)-acetylamino]-3-methoxy-ceph-3-em-4-carbonsäure]",1,2,0.1,0.5,1.5,3,5,6,7,22
"CS(=O)(=O)Nc1cc([C@@H](N)C(=O)N[C@@H]2C(=O)N3C(C(=O)O)=CCS[C@H]23)ccc1O [Verbindung 2, 7ß-[D-2-Amino-2-(3-methylsulfQnylamino-4-hydroxyphenyl)-acetylamino]-ceph-3-em-4-carbonsäure]",8,4,4,4,1.5,3,2.2,,3,22
"CS(=O)(=O)Nc1cc([C@@H](N)C(=O)N[C@@H]2C(=O)N3C(C(=O)O)=C(Cl)CS[C@H]23)ccc1O [Verbindung 3, 7ß-[D-2-Amino-2-(3-methylsulfonylamino-4-hydroxyphenyl)-acetylamino]-3-chlor-ceph-3-em-4-carbonsäure]",0.5,1,0.5,0.5,4,10,2,3,3,4
"CCS(=O)(=O)Nc1cc([C@@H](N)C(=O)N[C@@H]2C(=O)N3C(C(=O)O)=CCS[C@H]23)ccc1O [Verbindung 4, 7ß-[D-2-Amino-2-(3-äthylsulfonylamino-4-hydroxyphenyl)-acetylamino]-ceph-3-em-4-carbonsäure]",4,4,1,4,1.5,3,4.5,3,1.4,30
"CCS(=O)(=O)Nc1cc([C@@H](N)C(=O)N[C@@H]2C(=O)N3C(C(=O)O)=C(Cl)CS[C@H]23)ccc1O [Verbindung 5, 7ß-[D-2-Amino-2-(3-äthylsulfonylamino-4-hydroxyphenyl)-acetylamino]-3-chlor-ceph-3-em-4-carbonsäure]",0.1,1,0.5,2,7,10,4.5,3,1.4,30
"CCS(=O)(=O)Nc1cc([C@@H](N)C(=O)N[C@@H]2C(=O)N3C(C(=O)O)=C(OC)CS[C@H]23)ccc1O [Verbindung 6, 7ß-[D-2-Amino-2-(3-äthylsulfonylamino-4-hydroxyphenyl)-acetylamino]-3-methoxy-ceph-3-em-4-carbonsäure]",0.1,16,0.5,2,6,15,6,8,10,30
